Patent US9238020B2, “Compositions comprising enzyme-cleavable phenol-modified tapentadol prodrug” (priority 2010, dated 2016)

Tests used:
[1] = Pharmacokinetics of prodrug and tapentadol following IV administration to rats; conditions: male, Sprague Dawley, in vivo; prodrug in rat plasma; TP-1 IV 2 mg/kg (3 μmol/kg); read-out: TP-1 Cmax ± sd
Description: Compound TP-1 (which can be prepared as described in the examples herein) was dissolved in saline and injected into the tail vein of 4 jugular vein-cannulated male Sprague Dawley rats at a dose of 2 mg/kg. At specified time points, blood samples were drawn, harvested for plasma via centrifugation at 5,400 rpm at 4° C. for 5 min, and 100 μl plasma transferred from each sample into a fresh tube containing 2 μl of 50% formic acid. The tubes were vortexed for 5-10 seconds, immediately placed in dry ice and then stored in a −80° C. freezer until analysis by high performance liquid chromatography/mass spectrometry (HPLC/MS).
Table 2 and FIG. 4 provide Compound TP-1 and tapentadol exposure results for rats administered Compound TP-1 intravenously. Results in Table 2 are reported as maximum plasma concentration (Cmax) of Compound TP-1 and tapentadol (TP), respectively, (average±standard deviation).
Compound TP-3 or Compound TP-4 (which can be prepared as described in the examples herein), or tapentadol were dissolved in saline and injected into the tail vein of four jugular vein-cannulated male Sprague Dawley rats at a dose of 2 mg/kg. Sampling and analysis procedures were as described in Example 12.

[2] = molecular target: T1, trypsin from bovine pancreas (Bos taurus, UniProt P00760); assay: In vitro trypsin conversion of prodrug to tapentadol and inhibition thereof by Compound 109; assay type: biochemical; conditions: 4815 BAEE U trypsin/mL
T1 construct: purchased Sigma-Aldrich T8003; host or cells: bovine pancreas
T1 sequence (P00760 24-246): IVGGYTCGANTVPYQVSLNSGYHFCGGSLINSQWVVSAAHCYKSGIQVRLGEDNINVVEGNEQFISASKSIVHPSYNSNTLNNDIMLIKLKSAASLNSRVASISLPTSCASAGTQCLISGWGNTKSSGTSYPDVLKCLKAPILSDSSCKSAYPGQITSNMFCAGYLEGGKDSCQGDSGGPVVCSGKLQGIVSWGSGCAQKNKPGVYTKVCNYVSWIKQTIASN
Description: (§1) Compound TP-1 was incubated with trypsin from bovine pancreas (Catalog No. T8003, Type I, ˜10,000 BAEE units/mg protein, Sigma-Aldrich). Specifically, the reactions included 0.761 nM of Compound TP-1•2HCl, 22.5 mM calcium chloride, 40 to 172 mM Tris pH 8 and 0.25% DMSO with the BAEE units of trypsin indicated in Table 4. The reactions were conducted at 37° C. for 24 hr. Samples were collected at specified time points, transferred into 0.5% formic acid in acetonitrile to stop trypsin activity and stored at less than −70° C. until analysis by LC-MS/MS.
(§2) Compound TP-1 was also incubated in the presence of 2 micromolar (μM) trypsin inhibitor Compound 109. In that case, Compound TP-1 was added 5 min after the other incubation components. Other reaction and sample treatment conditions were as described above.
(§3) Table 4 indicates the results of exposure of Compound TP-1 to trypsin in the absence or presence of trypsin inhibitor. The results are expressed as half-life of prodrug when exposed to trypsin (i.e., Prodrug trypsin half-life) in hours and rate of tapentadol (TP) formation in umol/h/BAEE U trypsin.
(§4) Compound TP-1, Compound TP-3, or Compound TP-4 (which can be prepared as described in the examples herein) were incubated in the absence or presence of Compound 109 as shown in Table 8. Incubations and analysis procedures were as described in Example 14.

trypsin = molecular target: T2, trypsin (Bos taurus, UniProt P00760); assay: as above; assay type: biochemical, bovine; conditions: bovine, trypsin from bovine pancreas, pH 8, with Compound 109 (trypsin inhibitor); Table 8; 4815 BAEE U trypsin/mL, Compound 109 40 μM; read-out: Pro-drug trypsin half-life, Average ± sd (converted)
T2 construct: purchased Sigma-Aldrich T8003; host or cells: bovine pancreas
T2 sequence (P00760 24-246): T1 sequence (P00760 24-246)
Description: as §1, §2, §3, §4

[3] = system: norepinephrine uptake into rat hypothalamus synaptosomes; assay: In vitro functional norepinephrine uptake assay; assay type: biochemical; conditions: rat hypothalamus synaptosomes
Description: The general procedure follows the protocol described by S. Perovic and W. E. G. Muller, 1995, Arzneim-Forsch. Drug Res. 45, 1145-1148. More specifically, the assays included each of the compounds indicated in Table 13 and rat hypothalamus synaptosomes incubated with 0.2 μCi/mL [^3H] norepinephrine. For a control reaction, protriptyline was used. The reaction mixtures were incubated at 37° C. for 20 min, and the reaction product of [^3H] norepinephrine incorporation into the synaptosomes was measured by scintillation counting. IC50 values (concentration causing a half-maximal inhibition of control specific activity) were determined by non-linear regression fit using Hill plot software.

human μ-opioid receptor = human μ-opioid receptor (Homo sapiens, UniProt P35372); assay: In vitro human μ-opioid receptor agonist cellular functional assay (cAMP, CHO cells); assay type: cell-based; design: expressed in transfected cells; conditions: CHO cells expressing human μ-opioid receptor, 37° C., 10 min
Description: The general procedure follows the protocol described by J.-B. Wang, et al, ibid. More specifically, the assay included as appropriate, Compound TP-1 or tapentadol and recombinant Chinese hamster ovary (CHO) cells expressing the human μ-opioid receptor on their cell surfaces. The control reaction included 1 μM DAMGO. The reaction mixtures were incubated at 37° C. for 10 min, and the reaction product was cyclic AMP (cAMP). The samples were submitted to homogeneous time resolved fluorescence (HTRF®). EC50 values (concentration producing a half-maximal specific response) were determined by non-linear regression fit using Hill plot software.

Chain of human μ-opioid receptor (P35372 whole entry): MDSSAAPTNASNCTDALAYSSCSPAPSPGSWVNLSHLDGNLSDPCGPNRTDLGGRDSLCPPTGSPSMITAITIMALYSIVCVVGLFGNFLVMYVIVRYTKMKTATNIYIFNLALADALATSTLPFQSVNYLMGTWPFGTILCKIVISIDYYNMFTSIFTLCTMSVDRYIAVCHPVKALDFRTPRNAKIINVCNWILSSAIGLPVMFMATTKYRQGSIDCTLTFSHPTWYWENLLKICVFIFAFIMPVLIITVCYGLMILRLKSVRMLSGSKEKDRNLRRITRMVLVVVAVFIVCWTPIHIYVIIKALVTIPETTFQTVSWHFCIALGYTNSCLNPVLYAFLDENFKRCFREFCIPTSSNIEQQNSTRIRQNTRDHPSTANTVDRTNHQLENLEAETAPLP

CC[C@@H](c1cccc(OC(=O)N(C)CCNC(=O)[C@H](CCCNC(=N)N)NC(=O)CC(=O)O)c1)[C@@H](C)CN(C)C [Compound TP-1, N—[(S)-1-(2-{[3-((1R,2R)-3-dimethylamino-1-ethyl-2-methyl-propyl)-phenoxycarbonyl]-methyl-amino}-ethylcarbamoyl)-4-guanidino-butyl]-malonamic acid]
Cmax [1]: 965 ± 160 ng/mL
Rate of TP formation, Average ± sd ([2]; Table 4, Compound 109 0 μM): 0.0302 ± 0.002 umol/h/BAEE U
Rate of TP formation, Average ± sd ([2]; Table 4, Compound 109 2 μM): 0.0243 ± 0.0008 umol/h/BAEE U
Rate of TP formation, Average ± sd ([2]; Table 8, Compound 109 0 μM): 0.0302 ± 0.002 umol/h/BAEE U
Rate of TP formation, Average ± sd ([2]; Table 8, Compound 109 2 μM): 0.0243 ± 0.0008 umol/h/BAEE U
half-life at 0.761 nM (trypsin): 3.94 ± 0.18 h
activity as a norepinephrine reuptake inhibitor [3]: no detectable activity
agonist response in the μ-opioid receptor functional assay (human μ-opioid receptor): weak response was seen at 100 μM
